The test system of experiment [1] is C6. Nature of the experiment: Antitumour activity against rat C6 cells implanted in Wistar rat assessed as reduction in reactive astrocytes induced peri-tumoral areas at 25 mg/kg, ip administered on alternate days in total 3 doses and measured on day 7 co-treated with temozolomide by immunohistochemical analysis relative to control. Also on record: scale not given: the % may be the effect or the level left. In kind it is functional.

For experiment [2], the system named is C6. Nature of the experiment: Antitumour activity against rat C6 cells implanted in Wistar rat assessed as reduction in reactive astrocytes induced areas of blood vessels at 25 mg/kg, ip administered on alternate days in total 3 doses and measured on day 7 co-treated with temozolomide by immunohistochemical analysis relative to control. In kind it is functional. On the set-up: scale not given: the % may be the effect or the level left.

For the compound `CC[C@H](CO)Nc1nc(NCc2ccccc2)c2ncn(C(C)C)c2n1` [SELICICLIB], the Activity in experiment [1] and in experiment [2] was 100% each time.

Values taken from ChEMBL document CHEMBL4402522, “Exploring the new horizons of drug repurposing: A vital tool for turning hard work into smart work” (2019).
